Laboratory results reported in paper PMC7559897, “Designed Antimicrobial Peptides Against Trauma-Related Cutaneous Invasive Fungal Wound Infections” (Journal of Fungi, 2020).
In brackets after ≈: the same amount, converted by molar mass. Bridge positions count the residues as written; N and C are the ends. Peptide text beside a SMILES is read from it.

How the values were obtained:
[1] = tested on: P. aeruginosa 6186; format: cell-based, Pseudomonas aeruginosa; conditions: cation adjusted Mueller-Hinton broth, ~10^6 CFU/mL, 24 h, 37 °C, OD600 <0.1 in at least 3 of 4 wells, 2-128 μg/mL; shaded values previously reported ref 18
Experimental: (§1) Assays were performed by Trideum Biosciences (Frederick, MD, USA). Isolates were thawed from −80 °C storage and sub-cultured on trypticase soy agar plates at 37 °C prior to experimentation. A single colony was aseptically picked from the agar plate and released in 30 mL trypticase soy broth and incubated overnight at 37 °C incubator. Following which the bacterial culture was diluted to approximately 10^6 colony forming units (CFU)/mL using 2X cation adjusted Mueller–Hinton broth and added to the dAMP solutions (0, 2, 4, 8, 16, 32, 64, and 128 μg/mL) which had been formulated in water at 256 μg/mL and then serially diluted in media on 96-well pates. For fungal evaluation, potato dextrose broth and potato dextrose agar plates were used. The treated cultures were then incubated for 24 h at 37 °C and pathogen growth was measured by absorbance at 600 nm. Four replicas were included for each dAMP concentration. Each MIC was assigned to the lowest test agent concentration resulting in at least three out of four wells showing no growth based on an optical density (OD) reading of <0.1.

[2] = tested on: P. aeruginosa ATCC 27853; format: cell-based, Pseudomonas aeruginosa; conditions: cation adjusted Mueller-Hinton broth, ~10^6 CFU/mL, 24 h, 37 °C, OD600 <0.1 in at least 3 of 4 wells, 2-128 μg/mL; shaded values previously reported ref 18
Experimental: as §1

[3] = tested on: P. aeruginosa ATCC 19660; format: cell-based, Pseudomonas aeruginosa; conditions: cation adjusted Mueller-Hinton broth, ~10^6 CFU/mL, 24 h, 37 °C, OD600 <0.1 in at least 3 of 4 wells, 2-128 μg/mL; shaded values previously reported ref 18
Experimental: as §1

[4] = tested on: Aspergillus fumigatus 9651; format: cell-based; conditions: potato dextrose broth, 24 h, 37 °C, OD600 <0.1 in at least 3 of 4 wells, dose range 2 to 128 µg/mL; shaded values previously reported ref 17
Experimental: as §1

[5] = tested on: Candida parapsilosis Y-1761; format: cell-based; conditions: potato dextrose broth, 24 h, 37 °C, OD600 <0.1 in at least 3 of 4 wells, dose range 2 to 128 µg/mL; shaded values previously reported ref 17
Experimental: as §1

[6] = tested on: Fusarium solani NRRL 28548; format: cell-based; conditions: potato dextrose broth, 24 h, 37 °C, OD600 <0.1 in at least 3 of 4 wells, dose range 2 to 128 µg/mL; shaded values previously reported ref 17
Experimental: as §1

[7] = tested on: Mucor circinelloides NRRL 3631; format: cell-based; conditions: potato dextrose broth, 24 h, 37 °C, OD600 <0.1 in at least 3 of 4 wells, dose range 2 to 128 µg/mL; shaded values previously reported ref 17
Experimental: as §1

[8] = tested on: Candida albicans Y-6359; format: cell-based; conditions: potato dextrose broth, 24 h, 37 °C, OD600 <0.1 in at least 3 of 4 wells, dose range 2 to 128 µg/mL; shaded values previously reported ref 17
Experimental: as §1

[9] = tested on: Aspergillus flavus MYA-3651; format: cell-based; conditions: potato dextrose broth, 24 h, 37 °C, OD600 <0.1 in at least 3 of 4 wells, dose range 2 to 128 µg/mL; shaded values previously reported ref 17
Experimental: as §1

[10] = tested on: E. cloacae 6054; format: cell-based; conditions: cation adjusted Mueller-Hinton broth, ~10^6 CFU/mL, 24 h, 37 °C, OD600 <0.1 in at least 3 of 4 wells, 2-128 μg/mL; shaded values previously reported ref 18
Experimental: as §1

[11] = tested on: Aspergillus flavus MYA-1004; format: cell-based; conditions: potato dextrose broth, 24 h, 37 °C, OD600 <0.1 in at least 3 of 4 wells, dose range 2 to 128 µg/mL; shaded values previously reported ref 17
Experimental: as §1

[12] = tested on: E. cloacae 6053; format: cell-based; conditions: cation adjusted Mueller-Hinton broth, ~10^6 CFU/mL, 24 h, 37 °C, OD600 <0.1 in at least 3 of 4 wells, 2-128 μg/mL; shaded values previously reported ref 18
Experimental: as §1

[13] = tested on: Candida krusei Y-27825; format: cell-based; conditions: potato dextrose broth, 24 h, 37 °C, OD600 <0.1 in at least 3 of 4 wells, dose range 2 to 128 µg/mL; shaded values previously reported ref 17
Experimental: as §1

[14] = tested on: S. epidermis ATCC 51625; format: cell-based; conditions: cation adjusted Mueller-Hinton broth, ~10^6 CFU/mL, 24 h, 37 °C, OD600 <0.1 in at least 3 of 4 wells, 2-128 μg/mL; shaded values previously reported ref 18
Experimental: as §1

[15] = tested on: Candida albicans Y-326; format: cell-based; conditions: potato dextrose broth, 24 h, 37 °C, OD600 <0.1 in at least 3 of 4 wells, dose range 2 to 128 µg/mL; shaded values previously reported ref 17
Experimental: as §1

[16] = tested on: Aspergillus fumigatus 9648; format: cell-based; conditions: potato dextrose broth, 24 h, 37 °C, OD600 <0.1 in at least 3 of 4 wells, dose range 2 to 128 µg/mL; shaded values previously reported ref 17
Experimental: as §1

SMILES: CC[C@H](C)[C@@H]1NC(=O)CNC(=O)[C@H](CCCCN)NC(=O)[C@H](Cc2ccc(O)cc2)NC(=O)[C@@H]2CSSC[C@H](NC1=O)C(=O)N[C@@H](Cc1ccc(O)cc1)C(=O)N[C@@H](CCCCN)C(=O)N[C@@H](CCCCN)C(=O)N[C@H](C(=O)N[C@@H](CCCCN)C(N)=O)CSSC[C@H](NC(=O)[C@H](Cc1c[nH]c3ccccc13)NC(=O)[C@@H](N)CCCNC(=N)N)C(=O)N[C@@H](Cc1ccccc1)C(=O)N[C@@H](CCCCN)C(=O)N[C@@H](C(C)C)C(=O)N2 [RP556] (H-RWCFKVCYKGICYKKCK-NH2; disulfide 3-16, 7-12)
- MIC against P. aeruginosa 6186 [1]: 4 µg/mL (≈ 1.86 µM)
- MIC against P. aeruginosa ATCC 27853 [2]: 8 µg/mL (≈ 3.72 µM)
- MIC against P. aeruginosa ATCC 19660 [3]: 8 µg/mL (≈ 3.72 µM)
- MIC against Aspergillus fumigatus 9651 [4]: 64 µg/mL (≈ 29.7 µM)
- MIC against Candida parapsilosis Y-1761 [5]: 32 µg/mL (≈ 14.9 µM)
- MIC against Fusarium solani NRRL 28548 [6]: 2 µg/mL (≈ 0.929 µM)
- MIC against Mucor circinelloides NRRL 3631 [7]: 64 µg/mL (≈ 29.7 µM)
- MIC against Candida albicans Y-6359 [8]: 8 µg/mL (≈ 3.72 µM)
- MIC against Aspergillus flavus MYA-3651 [9]: 64 µg/mL (≈ 29.7 µM)
- MIC against E. cloacae 6054 [10]: 8 µg/mL (≈ 3.72 µM)
- MIC against Aspergillus flavus MYA-1004 [11]: 64 µg/mL (≈ 29.7 µM)
- MIC against E. cloacae 6053 [12]: 8 µg/mL (≈ 3.72 µM)
- MIC against Candida krusei Y-27825 [13]: 32 µg/mL (≈ 14.9 µM)
- MIC against S. epidermis ATCC 51625 [14]: 4 µg/mL (≈ 1.86 µM)
- MIC against Candida albicans Y-326 [15]: 16 µg/mL (≈ 7.44 µM)
- MIC against Aspergillus fumigatus 9648 [16]: 64 µg/mL (≈ 29.7 µM)
